The NIST ThermoML archive (doi:10.1021/je9003178)
± gives the expanded uncertainty stated by the source.

Test: activity coefficient (dimensionless); of the first substance listed, at infinite dilution; xn = mol fraction of the nth substance listed
Settings: Liquid, Chromatography, x1 = 0

| Compound | activity coefficient (322.65 K) | activity coefficient (332.85 K) | activity coefficient (343.15 K) | activity coefficient (343.85 K) | activity coefficient (352.65 K) |
| --- | --- | --- | --- | --- | --- |
| CCCC(C)=O [pentan-2-one] + CCn1cc[n+](C)c1.N#CN=C=[N-] | 2.92 ± 0.13 | 2.93 ± 0.13 | 2.9 ± 0.13 | – | – |
| CCC(=O)CC [pentan-3-one] + CCCCCC[N+](C)(C)C.O=S(=O)([N-]S(=O)(=O)C(F)(F)F)C(F)(F)F | 0.563 ± 0.032 | – | – | 0.601 ± 0.031 | 0.637 ± 0.03 |
| CCC(=O)CC [pentan-3-one] + CCn1cc[n+](C)c1.N#CN=C=[N-] | 2.81 ± 0.13 | 2.84 ± 0.13 | 2.84 ± 0.13 | – | – |
| CCCO [propan-1-ol] + CCCCCC[N+](C)(C)C.O=S(=O)([N-]S(=O)(=O)C(F)(F)F)C(F)(F)F | 1.83 ± 0.079 | – | – | 1.51 ± 0.058 | 1.41 ± 0.052 |
| CCCO [propan-1-ol] + CCn1cc[n+](C)c1.N#CN=C=[N-] | 1.07 ± 0.03 | 1.01 ± 0.03 | 0.97 ± 0.03 | – | – |
| CC(C)O [propan-2-ol] + CCCCCC[N+](C)(C)C.O=S(=O)([N-]S(=O)(=O)C(F)(F)F)C(F)(F)F | 1.69 ± 0.07 | – | – | 1.39 ± 0.051 | 1.33 ± 0.046 |
| CC(C)O [propan-2-ol] + CCn1cc[n+](C)c1.N#CN=C=[N-] | 1.2 ± 0.04 | 1.14 ± 0.03 | 1.09 ± 0.03 | – | – |
| CCC=O [propanal] + CCCCCC[N+](C)(C)C.O=S(=O)([N-]S(=O)(=O)C(F)(F)F)C(F)(F)F | 0.508 ± 0.032 | – | – | 0.502 ± 0.032 | 0.505 ± 0.032 |
| CCC=O [propanal] + CCn1cc[n+](C)c1.N#CN=C=[N-] | 1.4 ± 0.05 | 1.39 ± 0.05 | 1.37 ± 0.05 | – | – |
| c1ccncc1 [pyridine] + CCCCCC[N+](C)(C)C.O=S(=O)([N-]S(=O)(=O)C(F)(F)F)C(F)(F)F | 0.336 ± 0.035 | – | – | 0.589 ± 0.031 | 0.607 ± 0.031 |
| c1ccncc1 [pyridine] + CCn1cc[n+](C)c1.N#CN=C=[N-] | 0.4 ± 0.03 | 1.05 ± 0.03 | 1.07 ± 0.03 | – | – |
| ClC(Cl)(Cl)Cl [tetrachloromethane] + CCCCCC[N+](C)(C)C.O=S(=O)([N-]S(=O)(=O)C(F)(F)F)C(F)(F)F | 2.42 ± 0.11 | – | – | 2.39 ± 0.11 | 2.42 ± 0.11 |
| ClC(Cl)(Cl)Cl [tetrachloromethane] + CCn1cc[n+](C)c1.N#CN=C=[N-] | 4.49 ± 0.2 | 4.61 ± 0.21 | 4.71 ± 0.21 | – | – |
| CCCCCCCCCCCCCC [tetradecane] + CCCCCC[N+](C)(C)C.O=S(=O)([N-]S(=O)(=O)C(F)(F)F)C(F)(F)F | 159 ± 7.5 | – | – | 101 ± 4.7 | 84.7 ± 4 |
| CCCCCCCCCCCCCC [tetradecane] + CCn1cc[n+](C)c1.N#CN=C=[N-] | 2500 ± 120 | 2330 ± 110 | 2190 ± 110 | – | – |
| C1CCOC1 [tetrahydrofuran] + CCCCCC[N+](C)(C)C.O=S(=O)([N-]S(=O)(=O)C(F)(F)F)C(F)(F)F | 0.686 ± 0.03 | – | – | 0.754 ± 0.029 | 0.808 ± 0.028 |
| c1ccsc1 [thiophene] + CCCCCC[N+](C)(C)C.O=S(=O)([N-]S(=O)(=O)C(F)(F)F)C(F)(F)F | 0.921 ± 0.026 | – | – | 0.92 ± 0.026 | 0.941 ± 0.026 |
| c1ccsc1 [thiophene] + CCn1cc[n+](C)c1.N#CN=C=[N-] | 1.6 ± 0.06 | 1.51 ± 0.06 | 1.53 ± 0.06 | – | – |
| Cc1ccccc1 [toluene] + CCCCCC[N+](C)(C)C.O=S(=O)([N-]S(=O)(=O)C(F)(F)F)C(F)(F)F | 1.31 ± 0.045 | – | – | 1.33 ± 0.046 | 1.38 ± 0.05 |
| Cc1ccccc1 [toluene] + CCn1cc[n+](C)c1.N#CN=C=[N-] | 4.22 ± 0.19 | 4.21 ± 0.19 | 4.21 ± 0.19 | – | – |
| ClC(Cl)Cl [trichloromethane] + CCCCCC[N+](C)(C)C.O=S(=O)([N-]S(=O)(=O)C(F)(F)F)C(F)(F)F | 0.89 ± 0.027 | – | – | 0.929 ± 0.026 | 0.966 ± 0.026 |
| ClC(Cl)Cl [trichloromethane] + CCn1cc[n+](C)c1.N#CN=C=[N-] | 0.76 ± 0.03 | 0.81 ± 0.03 | 0.86 ± 0.03 | – | – |
| CCCCCCCCCCCCC [tridecane] + CCCCCC[N+](C)(C)C.O=S(=O)([N-]S(=O)(=O)C(F)(F)F)C(F)(F)F | 100 ± 4.7 | – | – | 76.2 ± 3.6 | 71.5 ± 3.3 |
| CCCCCCCCCCCCC [tridecane] + CCn1cc[n+](C)c1.N#CN=C=[N-] | 1940 ± 94 | 1780 ± 86 | 1650 ± 79 | – | – |
| CCN(CC)CC [triethylamine] + CCCCCC[N+](C)(C)C.O=S(=O)([N-]S(=O)(=O)C(F)(F)F)C(F)(F)F | 4.53 ± 0.21 | – | – | 4.83 ± 0.22 | 5.04 ± 0.23 |
| CCN(CC)CC [triethylamine] + CCn1cc[n+](C)c1.N#CN=C=[N-] | 9.09 ± 0.42 | 35.8 ± 1.7 | 131 ± 6.2 | – | – |
| CCCCCCCCCCC [undecane] + CCCCCC[N+](C)(C)C.O=S(=O)([N-]S(=O)(=O)C(F)(F)F)C(F)(F)F | 51.2 ± 2.4 | – | – | 42 ± 2 | 39.7 ± 1.8 |
| CCCCCCCCCCC [undecane] + CCn1cc[n+](C)c1.N#CN=C=[N-] | 1030 ± 50 | 926 ± 44 | 834 ± 40 | – | – |
